The structures appear in SMILES notation. Where two headings read alike, the source gives them in different places.

In assay [1] the target is T1, RORγt (Homo sapiens, UniProt P51449).
T1 sequence (P51449 1-497 isoform P51449-2): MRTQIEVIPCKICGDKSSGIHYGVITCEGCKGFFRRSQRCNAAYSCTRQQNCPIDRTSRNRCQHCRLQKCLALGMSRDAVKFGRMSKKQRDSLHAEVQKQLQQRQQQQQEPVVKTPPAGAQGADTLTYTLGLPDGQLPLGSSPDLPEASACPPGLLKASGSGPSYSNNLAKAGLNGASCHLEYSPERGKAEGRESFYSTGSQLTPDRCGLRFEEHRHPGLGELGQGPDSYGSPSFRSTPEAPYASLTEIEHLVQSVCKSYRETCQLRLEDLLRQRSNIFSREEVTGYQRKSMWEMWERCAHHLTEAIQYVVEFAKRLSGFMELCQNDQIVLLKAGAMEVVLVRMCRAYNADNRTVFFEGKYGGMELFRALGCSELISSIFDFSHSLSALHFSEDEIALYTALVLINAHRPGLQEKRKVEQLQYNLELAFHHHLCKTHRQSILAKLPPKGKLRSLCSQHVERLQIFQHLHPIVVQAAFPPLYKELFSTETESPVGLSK
The assay is described as follows: RORγt binding test using fluorescent-labeled synthetic ligand (TR-FRET). As to conditions: read-out: Binding inhibitory rate of fluorescent-labeled synthetic ligand to RORγt at test compound 1 μM (%). Here is the method:
RORγt Binding Test Using Fluorescent-labeled Synthetic Ligand
(§1) The binding activity of the test compound to RORγt was measured by a time resolved fluorescence resonance energy transfer method (TR-FRET) utilizing histidine-tagged RORγt, fluorescent-labeled synthetic ligand, and terbium-labeled anti-histidine tag antibody (Invitrogen). First, a test compound diluted with an assay buffer (20 mM Tris-HCl (pH 7.5), 100 mM NaCl, 1 mM DTT, 0.1% BSA) was added to a 384 well plate by 3 μL. Then, RORγt diluted with an assay buffer to 240 nM was added by 3 μL, after which fluorescent-labeled synthetic ligand diluted with the assay buffer to 12 μM was added by 3 μL, and the mixture was stood at room temperature for 20 min. Thereafter, a terbium-labeled anti-histidine tag antibody diluted with the assay buffer to 8 nM was added by 3 μL. The mixture was stood at room temperature for 20 min, and fluorescence intensity (excitation wavelength 320 nm, fluorescence wavelength 520 nm, delay time 100 microseconds) was measured by Envision (PerkinElmer).
A general note: In TR-FRET formats the signal depends on donor and acceptor labels being close together.

Assay [2] has as its target T1, RORγt. In words: Cofactor recruitment test (Alpha Screen, biotinylated SRC-1 peptide). Format: biochemical. The following applies: read-out: Signal value inhibitory rate at test compound 1 μM (%). On the procedure:
Cofactor Recruitment Test
Cofactor recruitment test was performed by Alpha Screen (Histidine Detection Kit, PerkinElmer) method. First, a test compound was diluted with an assay buffer (50 mM Tris-HCl (pH 7.5), 50 mM KCl, 1 mM DTT, 0.1% BSA) and added to a 384 well plate by 5 μL. […] The mixture was stood in a dark place for 1 hr, and the signal value was measured by Envision (PerkinElmer).

The target of assay [3] is T1, RORγt. The assay is described as follows: Jurkat reporter test (human IL-17 ROR response element luciferase, RORγt vector). As to conditions: read-out: Luminescence level inhibitory rate at test compound 3 μM (%). Format: cell-based. Here is the method:
The Jurkat cells used for the reporter test were cultured in a culture medium (RPMI (Invitrogen), 10% FCS (AusGeneX), 100 U/mL penicillin, 100 μg/mL streptomycin). On the day of the test, 4×10^7 cells were recovered by a centrifugal operation (1000 rpm, 5 min.) and suspended in PBS (phosphate buffered saline) (Invitrogen). Thereafter, the cells were recovered again by a centrifugal operation, and suspended in 2 mL of R buffer (NEON transfection kit, Invitrogen). […] Gene transfer was performed by Electroporation apparatus (NEON, Invitrogen) under the conditions of pulse voltage 1350 V, interval 10 milliseconds, number of times 3. The cells after gene transfer were suspended in 40 mL of a reaction medium (RPMI, 10% Lipid reduced FCS (HyClone), 10 mM HEPES (pH 7.5), 100 U/mL penicillin, 100 μg/mL streptomycin, 5 μM lovastatin), and plated in a 96 well plate by 90 μL. A test compound diluted with the reaction medium was added by 10 μL, and the cells were cultured overnight in an incubator. Bright-Glo (Promega) was added by 100 μL, and the mixture was stirred at room temperature for 10 min, and the luminescence level was measured by Envision (PerkinElmer).

Assay [4] has as its target T1, RORγt. The assay is described as follows: RORγt binding test using fluorescent-labeled cholesterol (TR-FRET). As to conditions: read-out: Binding inhibitory rate of fluorescent-labeled cholesterol to RORγt at test compound 1 μM (%). On the procedure: RORγt Binding Test Using Fluorescent-labeled Cholesterol
as §1, with “cholesterol (BODIPY-cholesterol, AVIVA),” for “synthetic ligand,”, “cholesterol” for “synthetic ligand”

Where [5] appears, read: test compound 3 μM, Jurkat cells.

Turning to `CCOc1ccc2c(c1)CCN(C(=O)CCCCC(=O)O)[C@H]2C(=O)Nc1ccc([Si](C)(C)C)c(F)c1` [Example 211, 6-((1R)-6-ethoxy-1-((3-fluoro-4-(trimethylsilyl)phenyl)carbamoyl)-3,4-dihydroisoquinolin-2 (1H)-yl)-6-oxohexanoic acid], the inhibition at 1 µM worked out at 101% in assay [1] and 92% in assay [2]. Besides, the inhibition at 3 µM in assay [3] (Jurkat) worked out at 101%.

Turning to `CCOc1ccc2c(c1)CCN(C(=O)[C@H](O)CCC(=O)O)[C@H]2C(=O)Nc1cc(F)c([Si](C)(C)C)c(F)c1` [Example 209, (4R)-5-((1R)-1-((3,5-difluoro-4-(trimethylsilyl)phenyl)carbamoyl)-6-ethoxy-3,4-dihydroisoquinolin-2(1H)-yl)-4-hydroxy-5-oxopentanoic acid], the inhibition at 1 µM in assay [1] was 102%; in assay [2] it was 87%. In addition, the inhibition at 3 µM in assay [3] (Jurkat) was found to be 99%.

For `CC[Si](C)(C)c1c(F)cc(NC(=O)[C@H]2c3ccc(OC)cc3CCN2C(=O)Cc2cc(O)no2)cc1F` [Example 88, (1R)-N-(4-(ethyl (dimethyl)silyl)-3,5-difluorophenyl)-2-((3-hydroxy-1,2-oxazol-5-yl)acetyl)-6-methoxy-1,2,3,4-tetrahydroisoquinoline-1-carboxamide], the inhibition at 1 µM in assay [1] was found to be 102%.

Turning to `CCOc1ccc2c(c1)CCN(C(=O)CCCCC(=O)O)[C@H]2C(=O)Nc1cc(F)c2c(c1)CCC2(C)C` [Example 210, 6-((1R)-6-ethoxy-1-((7-fluoro-1,1-dimethyl-2,3-dihydro-1H-inden-5-yl)carbamoyl)-3,4-dihydroisoquinolin-2(1H)-yl)-6-oxohexanoic acid], the inhibition at 1 µM came to 101% in assay [1] and 76% in assay [2]. Further, in assay [3] (setting [5]), the inhibition at 3 µM is 98%.

Take `C[Si](C)(C)c1c(F)cc(NC(=O)[C@H]2c3ccc(S(C)(=O)=O)cc3CCN2C(=O)CCCC(=O)O)cc1F` [Example 235, 5-((1R)-1-((3,5-difluoro-4-(trimethylsilyl)phenyl)carbamoyl)-6-(methylsulfonyl)-3,4-dihydroisoquinolin-2(1H)-yl)-5-oxopentanoic acid]: the inhibition at 1 µM came out at 102% in assay [1] and 45% in assay [2]. Also, the inhibition at 3 µM in assay [3] (Jurkat) came to 93%.

As to `CC1(C)CCc2cc(NC(=O)[C@H]3c4ccc5c(c4CCN3C(=O)CCCC(=O)O)OCO5)cc(F)c21` [Example 256, 5-((6R)-6-((7-fluoro-1,1-dimethyl-2,3-dihydro-1H-inden-5-yl)carbamoyl)-8,9-dihydro[1, 3]dioxolo[4,5-f]isoquinolin-7 (6H)-yl)-5-oxopentanoic acid], the inhibition at 1 µM is 100% in assay [1] and 102% in assay [2]. For the same molecule, the inhibition at 3 µM in assay [3] (setting [5]) came to 83%.

As to `C[Si](C)(C)c1c(F)cc(NC(=O)[C@H]2c3ccc(OC(F)F)cc3CCN2C(=O)CCC(=O)O)cc1F` [Example 195, 4-((1R)-6-(difluoromethoxy)-1-((3,5-difluoro-4-(trimethylsilyl)phenyl)carbamoyl)-3,4-dihydroisoquinolin-2 (1H)-yl)-4-oxobutanoic acid], the inhibition at 1 µM in assay [1] turned out to be 101%; in assay [2], 89%. The inhibition at 3 µM in assay [3] (Jurkat) is 101%.

For the molecule `CCOc1ccc2c(c1)CCN(C(=O)CCC(=O)O)[C@H]2C(=O)Nc1cc(F)c([Si](C)(C)C)c(F)c1` [Example 180, 4-((1R)-1-((3,5-difluoro-4-(trimethylsilyl)phenyl)carbamoyl)-6-ethoxy-3,4-dihydroisoquinolin-2(1H)-yl)-4-oxobutanoic acid], the results for the inhibition at 1 µM in assay [1] and in assay [2] were 101% and 93%, respectively. Moreover, in assay [3] (Jurkat), the inhibition at 3 µM stood at 100%.

In the case of `C[Si](C)(C)c1c(F)cc(NC(=O)[C@H]2c3ccc(OC(F)F)cc3CCN2C(=O)CCCC(=O)O)cc1F` [Example 196, 5-((1R)-6-(difluoromethoxy)-1-((3,5-difluoro-4-(trimethylsilyl)phenyl)carbamoyl)-3,4-dihydroisoquinolin-2 (1H)-yl)-5-oxopentanoic acid], the inhibition at 1 µM in assay [1] was 102%; in assay [2], 91%. For the same molecule, the inhibition at 3 µM in assay [3] (Jurkat) stood at 100%.

`CCOc1ccc2c(c1)CCN(C(=O)CCCC(=O)O)[C@H]2C(=O)Nc1cc(F)c([Si](C)(C)C)cc1F` [Example 184, 5-((1R)-1-((2,5-difluoro-4-(trimethylsilyl)phenyl)carbamoyl)-6-ethoxy-3,4-dihydroisoquinolin-2(1H)-yl)-5-oxopentanoic acid]: the results for the inhibition at 1 µM in assay [1] and in assay [2] were 101% and 93%, respectively. Moreover, the inhibition at 3 µM in assay [3] (Jurkat) is 100%.

Regarding `COc1ccc2c(n1)CCN(C(=O)c1cc(O)no1)[C@H]2C(=O)Nc1ccc(C(C)(C)C)c(F)c1` [Example 77, (5R)-N-(4-tert-butyl-3-fluorophenyl)-6-((3-hydroxy-1,2-oxazol-5-yl)carbonyl)-2-methoxy-5,6,7,8-tetrahydro-1,6-naphthyridine-5-carboxamide], the inhibition at 1 µM in assay [4] turned out to be 101%; in assay [2], 91%. Besides, the inhibition at 3 µM in assay [3] (setting [5]) is 100%.

For `CCOc1ccc2c(c1)CCN(C(=O)Cc1cc(O)no1)[C@H]2C(=O)Nc1cc(F)c(C(C)(C)COC)c(F)c1` [Example 165, (1R)-N-(3,5-difluoro-4-(1-methoxy-2-methylpropan-2-yl)phenyl)-6-ethoxy-2-((3-hydroxy-1,2-oxazol-5-yl)acetyl)-1,2,3,4-tetrahydroisoquinoline-1-carboxamide], the inhibition at 1 µM in assay [4] came to 101%; in assay [2], 96%. Besides, the inhibition at 3 µM in assay [3] (setting [5]) is 101%.

Take `COc1ccc2c(c1)CCN(C(=O)CCO)[C@H]2C(=O)Nc1ccc(C(C)(C)C)c(F)c1` [Example 30, (1R)-N-(4-tert-butyl-3-fluorophenyl)-2-(3-hydroxypropanoyl)-6-methoxy-1,2,3,4-tetrahydroisoquinoline-1-carboxamide]: the inhibition at 1 µM in assay [4] was found to be 102%; in assay [2], 82%. The inhibition at 3 µM in assay [3] (setting [5]) came out at 99.8%.

`COc1ccc2c(c1)CCN(C(=O)c1ccc(=O)[nH]c1)C2C(=O)Nc1ccc([Si](C)(C)C)c(F)c1` (stereo not shown) [Example 4, N-(3-fluoro-4-(trimethylsilyl)phenyl)-6-methoxy-2-((6-oxo-1,6-dihydropyridin-3-yl)carbonyl)-1,2,3,4-tetrahydroisoquinoline-1-carboxamide]: the inhibition at 1 µM in assay [4] came out at 101%; in assay [2] it was 81.9%. Further, the inhibition at 3 µM in assay [3] (Jurkat) stood at 99.7%.

The record behind these values is patent US10053468B2, “Heterocyclic compound” (TAKEDA PHARMACEUTICAL COMPANY LIMITED, priority 2013, dated 2018).
